Numbered stars: 1 amine (or outer) side, 2 acyl side, 3 side chain; on linkers, the order of the positions; unused ones are H or OH. Bridge positions count the residues as written; N and C are the ends. Square brackets hold non-standard residues; d marks the D form. Side chains are listed from the residue outwards. Peptide text beside a SMILES is read from it. * marks the point of attachment. C20 diacid = O=C(O)CCCCCCCCCCCCCCCCCCC(=O)*; C18 diacid = O=C(O)CCCCCCCCCCCCCCCCC(=O)*; γGlu = O=C(O)[C@H](CCC(=O)[*:2])N[*:1]; αMeF = C[C@](N)(Cc1ccccc1)C(=O)O
What was measured:
[1] = target: T1, human amylin receptor (calcitonin receptor co-expressed with receptor activity modifying protein, RAMP3) (hAMYR3) (Homo sapiens, UniProt O60896+P30988); test: cAMP production in 1321N1 cells with stable recombinant expression of human amylin receptor (hAMYR3); assay type: cell-based; conditions: for Ratio (selectivity hAMYR vs hCTR, ratio of EC50 values at the two receptors): EC50 hCTR / EC50 hAMYR3; for EC50: cAMP, 1321N1 cells, assay buffer with 0.1% BSA, read-out: EC50 (pM) hAMYR3
T1 construct: expressed in transfected cells
T1 sequence (P30988 25-474): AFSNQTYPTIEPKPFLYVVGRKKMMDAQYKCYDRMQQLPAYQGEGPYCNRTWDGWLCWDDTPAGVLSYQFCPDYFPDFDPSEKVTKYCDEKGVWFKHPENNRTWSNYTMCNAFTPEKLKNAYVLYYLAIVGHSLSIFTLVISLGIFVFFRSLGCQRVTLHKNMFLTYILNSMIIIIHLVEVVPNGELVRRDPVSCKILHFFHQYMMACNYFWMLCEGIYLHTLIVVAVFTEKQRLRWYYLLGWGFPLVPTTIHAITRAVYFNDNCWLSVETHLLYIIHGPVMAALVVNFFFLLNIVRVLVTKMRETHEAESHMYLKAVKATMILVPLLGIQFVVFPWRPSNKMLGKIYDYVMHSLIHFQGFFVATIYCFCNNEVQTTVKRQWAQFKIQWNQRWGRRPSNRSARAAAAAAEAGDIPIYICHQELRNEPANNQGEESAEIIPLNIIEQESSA
T1 sequence (O60896 24-148 partner): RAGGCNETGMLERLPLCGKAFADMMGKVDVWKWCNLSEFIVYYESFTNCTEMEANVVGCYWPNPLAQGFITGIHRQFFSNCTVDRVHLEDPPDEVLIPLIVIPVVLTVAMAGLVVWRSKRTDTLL
Experimental: (§1) The functional activities of lipidated pramlintide analogue peptides, such as cAMP production, were tested in 1321N1 cell line with stable recombinant expression of human calcitonin receptor (hCTR) or human amylin receptor (calcitonin receptor co-expressed with receptor activity modifying protein, RAMP3) (hAMYR3) or HEK cells with stable recombinant expression of rat calcitonin receptor (rat CTR) or rat amylin receptor (calcitonin receptor co-expressed with receptor activity modifying protein, RAMP3) (Rat AMYR3).
(§2) Cryopreserved cell stock was thawed rapidly in a water-bath, suspended in assay buffer (0.1% BSA (Sigma # A3059) in HBSS (Sigma # H8264) with 25 mM HEPES, pH 7.4 and containing 0.5 mM IB MX (Sigma# 17018)) and spun at 240×g for 5 minutes. Cells were re-suspended in assay buffer at a batch-dependent optimized concentration (e.g. hCTR cells at 0.125×10^5 cells/mL, hAMYR3 cells at 0.125×10^5 cells/mL, rat CTR cells at 1x10^5 cells/mL, rat AMYR3 at 2×10^5 cells/mL).
(§3) The test peptide stock was prepared in DMSO and diluted in assay buffer to reach stated concentrations and transferred in duplicates into a 384-black shallow well microtitre assay plate (Corning # 3676). Cells were added to the assay plate, incubated at room temperature for 30 minutes and the cAMP level measured using cAMP dynamic 2 HTRF kit (Cisbio, Cat # 62AM4PEJ), following the two step protocol as per manufacturer's recommendations. The plates were read on an Envision (Perkin Elmer) using excitation wavelength of 320 nm and emission wavelengths of 620nm & 665 nm.
(§4) Data was transformed to % Delta F as described in the manufacturer's guidelines and analyzed as percent activation of maximal amylin or calcitonin effect by 4-parameter logistic fit to determine EC50 values. The selectivity of a peptide to hAMYR vs hCTR is defined as a ratio of EC50 values at the two receptors.

[2] = target: T2, human calcitonin receptor (hCTR) (Homo sapiens, UniProt P30988); test: cAMP production in 1321N1 cells with stable recombinant expression of human calcitonin receptor (hCTR); assay type: cell-based; conditions: cAMP, 1321N1 cells, assay buffer with 0.1% BSA; read-out: EC50 (pM) hCTR
T2 construct: expressed in transfected cells
T2 sequence (P30988 25-474): T1 sequence (P30988 25-474)
Experimental: as §1, §2, §3, §4

Ratio (selectivity hAMYR vs hCTR, ratio of EC50 values at the two receptors) [1]	EC50 [1] [pM]	EC50 [2] [pM]	SMILES
6	220	1350	CC[C@H](C)[C@H](NC(=O)[C@@H]1CCCN1C(=O)CNC(=O)[C@](C)(Cc1ccccc1)NC(=O)[C@H](CC(N)=O)NC(=O)[C@H](CC(N)=O)NC(=O)[C@H](CO)NC(=O)[C@H](CO)NC(=O)[C@H](Cc1c[nH]cn1)NC(=O)[C@@H](NC(=O)[C@H](CC(C)C)NC(=O)[C@H](Cc1ccccc1)NC(=O)[C@H](CC(N)=O)NC(=O)[C@H](C)NC(=O)[C@H](CC(C)C)NC(=O)[C@H](CCCNC(=N)N)NC(=O)[C@H](CCC(N)=O)NC(=O)[C@@H](NC(=O)[C@H](C)NC(=O)[C@@H]1CSSC[C@H](NC(=O)[C@H](CCCCN)NC(=O)[C@@H](N)CCCCNC(=O)CC[C@H](NC(=O)CCCCCCCCCCCCCCCCC(=O)O)C(=O)O)C(=O)N[C@@H](CC(N)=O)C(=O)N[C@@H]([C@@H](C)O)C(=O)N[C@@H](C)C(=O)N[C@@H]([C@@H](C)O)C(=O)N1)[C@@H](C)O)C(C)C)C(=O)N[C@@H](CC(C)C)C(=O)N1CCC[C@H]1C(=O)N1CCC[C@H]1C(=O)N[C@H](C(=O)N[C@@H](CC(N)=O)C(=O)N[C@H](C(=O)NCC(=O)N[C@@H](CO)C(=O)N[C@@H](CC(N)=O)C(=O)N[C@H](C(=O)N[C@@H](Cc1ccc(O)cc1)C(N)=O)[C@@H](C)O)C(C)C)[C@@H](C)O [Peptide 14, K(γE-C18diacid)K[CNTATC]ATQRLANFLVHSSNN(αMePhe)GPILPPTNVGSNTY-amide] (H-K([γGlu-C18 diacid])KCNTATCATQRLANFLVHSSNN[αMeF]GPILPPTNVGSNTY-NH2; disulfide 3-8; N-terminus assumed)
9	221		CC[C@H](C)[C@H](NC(=O)[C@@H]1CCCN1C(=O)CNC(=O)[C@](C)(Cc1ccccc1)NC(=O)[C@H](CC(N)=O)NC(=O)[C@H](CC(N)=O)NC(=O)[C@H](CO)NC(=O)[C@H](CO)NC(=O)[C@H](Cc1c[nH]cn1)NC(=O)[C@H](CCCNC(=N)N)NC(=O)[C@H](CC(C)C)NC(=O)[C@H](Cc1ccccc1)NC(=O)[C@H](CC(N)=O)NC(=O)[C@H](C)NC(=O)[C@H](CC(C)C)NC(=O)[C@H](CCCNC(=N)N)NC(=O)[C@H](CCC(N)=O)NC(=O)[C@@H](NC(=O)[C@H](C)NC(=O)[C@@H]1CSSC[C@H](NC(=O)[C@@H](N)CCCCNC(=O)CC[C@H](NC(=O)CCCCCCCCCCCCCCCCC(=O)O)C(=O)O)C(=O)N[C@@H](CC(N)=O)C(=O)N[C@@H]([C@@H](C)O)C(=O)N[C@@H](C)C(=O)N[C@@H]([C@@H](C)O)C(=O)N1)[C@@H](C)O)C(=O)N[C@@H](CC(C)C)C(=O)N1CCC[C@H]1C(=O)N1CCC[C@H]1C(=O)N[C@H](C(=O)N[C@@H](CCC(=O)O)C(=O)N[C@H](C(=O)NCC(=O)N[C@@H](CO)C(=O)N[C@@H](CC(N)=O)C(=O)N[C@H](C(=O)N[C@@H](Cc1ccc(O)cc1)C(N)=O)[C@@H](C)O)C(C)C)[C@@H](C)O [Peptide 16, K(γE-C18diacid)[CNTATC]ATQRLANFLRHSSNN(αMePhe)GPILPPTEVGSNTY-amide] (H-K([γGlu-C18 diacid])CNTATCATQRLANFLRHSSNN[αMeF]GPILPPTEVGSNTY-NH2; disulfide 2-7; N-terminus assumed)

More lines, now with the values behind:

SMILES	Ratio (selectivity hAMYR vs hCTR, ratio of EC50 values at the two receptors) [1]	EC50 [1] [pM]	EC50 [2] [pM]
CC[C@H](C)[C@H](NC(=O)[C@@H]1CCCN1C(=O)CNC(=O)[C@H](Cc1ccccc1)NC(=O)[C@H](CC(N)=O)NC(=O)[C@H](CC(N)=O)NC(=O)[C@H](CO)NC(=O)[C@H](CO)NC(=O)[C@H](Cc1c[nH]cn1)NC(=O)[C@@H](NC(=O)[C@H](CC(C)C)NC(=O)[C@H](Cc1ccccc1)NC(=O)[C@H](CC(N)=O)NC(=O)[C@H](C)NC(=O)[C@H](CC(C)C)NC(=O)[C@H](CCCNC(=N)N)NC(=O)[C@H](CCC(N)=O)NC(=O)[C@@H](NC(=O)[C@H](C)NC(=O)[C@@H]1CSSC[C@H](NC(=O)[C@@H](N)CCCCNC(=O)CC[C@H](NC(=O)CC[C@H](NC(=O)CCCCCCCCCCCCCCCCCCC(=O)O)C(=O)O)C(=O)O)C(=O)N[C@@H](CC(N)=O)C(=O)N[C@@H]([C@@H](C)O)C(=O)N[C@@H](C)C(=O)N[C@@H]([C@@H](C)O)C(=O)N1)[C@@H](C)O)C(C)C)C(=O)N[C@@H](CC(C)C)C(=O)N1CCC[C@H]1C(=O)N1CCC[C@H]1C(=O)N[C@H](C(=O)N[C@@H](CC(N)=O)C(=O)N[C@H](C(=O)NCC(=O)N[C@@H](CO)C(=O)N[C@@H](CCCNC(=N)N)C(=O)N[C@H](C(=O)N[C@@H](Cc1ccc(O)cc1)C(N)=O)[C@@H](C)O)C(C)C)[C@@H](C)O [Peptide 114] (H-K([γGlu-γGlu-C20 diacid])CNTATCATQRLANFLVHSSNNFGPILPPTNVGSRTY-NH2; disulfide 2-7 (inferred))	12		
CC[C@H](C)[C@H](NC(=O)[C@H](C)NC(=O)[C@@H]1CCCN1C(=O)[C@H](Cc1ccccc1)NC(=O)[C@H](CC(N)=O)NC(=O)[C@@H]1CCCN1C(=O)[C@H](CO)NC(=O)[C@H](CO)NC(=O)[C@H](Cc1c[nH]cn1)NC(=O)[C@@H](NC(=O)[C@H](CC(C)C)NC(=O)[C@H](Cc1ccccc1)NC(=O)[C@H](CC(N)=O)NC(=O)[C@H](C)NC(=O)[C@H](CC(C)C)NC(=O)[C@H](CCCNC(=N)N)NC(=O)[C@H](CCC(N)=O)NC(=O)[C@@H](NC(=O)[C@H](C)NC(=O)[C@@H]1CSSC[C@H](NC(=O)[C@@H](N)CCCCNC(=O)CC[C@H](NC(=O)CC[C@H](NC(=O)CCCCCCCCCCCCCCCCCCC(=O)O)C(=O)O)C(=O)O)C(=O)N[C@@H](CC(N)=O)C(=O)N[C@@H]([C@@H](C)O)C(=O)N[C@@H](C)C(=O)N[C@@H]([C@@H](C)O)C(=O)N1)[C@@H](C)O)C(C)C)C(=O)N[C@@H](CC(C)C)C(=O)N[C@@H](CO)C(=O)N1CCC[C@H]1C(=O)N[C@H](C(=O)N[C@@H](CC(N)=O)C(=O)N[C@H](C(=O)NCC(=O)N[C@@H](CO)C(=O)N[C@@H](CC(N)=O)C(=O)N[C@H](C(=O)N[C@@H](Cc1ccc(O)cc1)C(N)=O)[C@@H](C)O)C(C)C)[C@@H](C)O [Peptide 115] (H-K([γGlu-γGlu-C20 diacid])CNTATCATQRLANFLVHSSPNFPAILSPTNVGSNTY-NH2; disulfide 2-7 (inferred))	11		
CC[C@H](C)[C@H](NC(=O)[C@H](C)NC(=O)[C@@H]1CCCN1C(=O)[C@H](Cc1ccccc1)NC(=O)[C@H](CC(N)=O)NC(=O)[C@@H]1CCCN1C(=O)[C@H](CO)NC(=O)[C@H](CO)NC(=O)[C@H](Cc1c[nH]cn1)NC(=O)[C@@H](NC(=O)[C@H](CC(C)C)NC(=O)[C@H](Cc1c[nH]c2ccccc12)NC(=O)[C@H](CC(N)=O)NC(=O)[C@H](C)NC(=O)[C@H](CC(C)C)NC(=O)[C@H](CCCNC(=N)N)NC(=O)[C@H](CCC(N)=O)NC(=O)[C@@H](NC(=O)[C@H](C)NC(=O)[C@@H]1CSSC[C@H](NC(=O)[C@@H](N)CCCCNC(=O)CC[C@H](NC(=O)CC[C@H](NC(=O)CCCCCCCCCCCCCCCCCCC(=O)O)C(=O)O)C(=O)O)C(=O)N[C@@H](CC(N)=O)C(=O)N[C@@H](C)C(=O)N[C@@H](C)C(=O)N[C@@H]([C@@H](C)O)C(=O)N1)[C@@H](C)O)C(C)C)C(=O)N[C@@H](CC(C)C)C(=O)N[C@@H](CO)C(=O)N1CCC[C@H]1C(=O)N[C@H](C(=O)N[C@@H](CC(N)=O)C(=O)N[C@H](C(=O)NCC(=O)N[C@@H](CO)C(=O)N[C@@H](CC(N)=O)C(=O)N[C@H](C(=O)N[C@@H](Cc1ccc(O)cc1)C(N)=O)[C@@H](C)O)C(C)C)[C@@H](C)O [Peptide 120] (H-K([γGlu-γGlu-C20 diacid])CNAATCATQRLANWLVHSSPNFPAILSPTNVGSNTY-NH2; disulfide 2-7 (inferred))	6		

— US20240067693A1, “POLYPEPTIDES AND USES THEREOF” (MEDIMMUNE LIMITED, priority 2020, published 2024)
